Key:
[1] = Half life in mouse at 5 mg/kg, iv; type: ADME, organism-based; set-up: dose 5 mg/kg, route intravenous; settings: in vivo
[2] = Tmax in rat at 10 mg/kg, po; type: ADME, organism-based; set-up: dose 10 mg/kg, route oral; settings: in vivo
Rattus norvegicus [3] = test: Plasma concentration in rat at 100 umol/kg, ip; type: ADME, organism-based; settings: in vivo
[4] = Bioavailability in rat at 10 mg/kg, po; type: ADME, organism-based; settings: in vivo
[5] = Bioavailability in mouse at 20 mg/kg, po; type: ADME, organism-based; settings: in vivo
[6] = Half life in rat at 10 mg/kg, iv; type: ADME, organism-based; set-up: dose 10 mg/kg, route intravenous; settings: in vivo
[7] = Plasma concentration in mouse at 25 umol/kg, ip after 30 mins; type: ADME, organism-based
[8] = Terminal volume of distribution in rat at 10 mg/kg, iv; type: ADME, organism-based; set-up: dose 10 mg/kg, route intravenous; settings: in vivo, read-out: Vbeta
[9] = Terminal volume of distribution in mouse at 5 mg/kg, iv; type: ADME, organism-based; set-up: dose 5 mg/kg, route intravenous; settings: in vivo, read-out: Vbeta
Rattus norvegicus [10] = test: Antiinflammatory activity against carrageenan-induced hyperalgesia in rat assessed as increase in paw withdrawal at 300 umol/kg, ip relative to control; type: functional
Rattus norvegicus [11] = test: Antiinflammatory activity against carrageenan-induced thermal hyperalgesia in ip dosed rat assessed as increase in paw withdrawal; type: functional
[12] = Cmax in rat at 10 mg/kg, po; type: ADME, organism-based; set-up: dose 10 mg/kg, route oral; settings: in vivo
Rattus norvegicus [13] = test: Plasma concentration in rat at 80 umol/kg, ip; type: ADME, organism-based; settings: in vivo
[14] = Tmax in mouse at 20 mg/kg, po; type: ADME, organism-based; set-up: dose 20 mg/kg, route oral; settings: in vivo
Mus musculus [15] = test: Antiinflammatory activity in zymosan-induced peritonitis in sc dosed BALB/c mouse model assessed as decrease in myeloperoxidase activity in peritoneal lavage; type: functional
Histamine H3 receptor = Histamine H3 receptor (Homo sapiens, UniProt Q9Y5N1); test: Binding affinity to human histamine H3 receptor
Sequence of Histamine H3 receptor (Q9Y5N1 whole entry): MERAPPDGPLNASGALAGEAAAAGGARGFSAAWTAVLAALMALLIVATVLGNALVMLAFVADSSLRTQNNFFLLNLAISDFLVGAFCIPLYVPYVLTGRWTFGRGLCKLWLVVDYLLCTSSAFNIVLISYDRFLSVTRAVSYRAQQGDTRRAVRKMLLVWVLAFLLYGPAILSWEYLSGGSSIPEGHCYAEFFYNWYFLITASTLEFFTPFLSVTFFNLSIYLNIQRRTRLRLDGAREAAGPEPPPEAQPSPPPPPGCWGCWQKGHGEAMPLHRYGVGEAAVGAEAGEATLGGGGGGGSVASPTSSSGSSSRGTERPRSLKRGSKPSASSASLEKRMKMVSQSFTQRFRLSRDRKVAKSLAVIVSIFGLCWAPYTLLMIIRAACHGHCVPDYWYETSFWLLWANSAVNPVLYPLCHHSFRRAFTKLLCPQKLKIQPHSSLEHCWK

Rattus norvegicus [16] = test: Antiinflammatory activity against carrageenan-induced thermal hyperalgesia in rat assessed as increase in paw withdrawal at 100 umol/kg, ip relative to control; type: functional
[17] = Half life in mouse at 20 mg/kg, po; type: ADME, organism-based; set-up: dose 20 mg/kg, route oral; settings: in vivo
Rattus norvegicus [18] = test: Plasma concentration in rat at 300 umol/kg, ip; type: ADME, organism-based; settings: in vivo
[19] = Cmax in rat at 10 mg/kg, iv; type: ADME, organism-based; set-up: dose 10 mg/kg, route intravenous; settings: in vivo
[20] = Cmax in mouse at 5 mg/kg, iv; type: ADME, organism-based; set-up: dose 5 mg/kg, route intravenous; settings: in vivo
Mus musculus [21] = test: Antiinflammatory activity in ip dosed CD1/ICR mouse assessed as reduction of clobenpropit-induced itching; type: functional
[22] = Cmax in mouse at 20 mg/kg, po; type: ADME, organism-based; set-up: dose 20 mg/kg, route oral; settings: in vivo
[23] = Protein binding in ip dosed rat plasma; type: ADME, organism-based; settings: read-out: PPB (converted)
[24] = Half life in rat at 10 mg/kg, po; type: ADME, organism-based; set-up: dose 10 mg/kg, route oral; settings: in vivo
Rattus norvegicus [25] = test: Plasma concentration in rat at 30 umol/kg, ip; type: ADME, organism-based; settings: in vivo

- half-life [1]: 0.7 h
- Tmax [2]: 0.25 h
- Cp (Rattus norvegicus [3]): 1454 ng/mL
- bioavailability [4]: 47%
- bioavailability [5]: 24%
- half-life [6]: 1.7 h
- concentration at 0.5 h [7]: 860 ng/mL
- Vd [8]: 37 L/kg
- Vd [9]: 24 L/kg
- Cmax [12]: 220 ng/mL
- Cp (Rattus norvegicus [13]): 1200 ng/mL
- Tmax [14]: 1.33 h
- Ki (Histamine H3 receptor): 2.24 µM
- half-life [17]: 1.4 h
- Cp (Rattus norvegicus [18]): 4135 ng/mL
- Cmax [19]: 1140 ng/mL
- Cmax [20]: 560 ng/mL
- Cmax [22]: 140 ng/mL
- fraction unbound [23]: 0.28
- half-life [24]: 2.5 h
- Cp (Rattus norvegicus [25]): 432 ng/mL
SMILES: CN1CCN(C(=O)c2cc3cc(Cl)ccc3[nH]2)CC1 [JNJ-7777120]
- Activity (Rattus norvegicus [10]): 96%
- ED50 (Rattus norvegicus [11]): 80 µmol/kg
- ED50 (Mus musculus [15]): 61 µmol/kg
- Activity (Rattus norvegicus [16]): 49%
- ED50 (Mus musculus [21]): 25 µmol/kg
